Test [1] concerns the target T1, MT-3 melatonin sites of hamster brain (Mesocricetus auratus, UniProt A0ABM2YAB8).
T1 construct: MT-3 melatonin sites of hamster brain; host or cells: hamster brain
T1 sequence (A0ABM2YAB8 1-231): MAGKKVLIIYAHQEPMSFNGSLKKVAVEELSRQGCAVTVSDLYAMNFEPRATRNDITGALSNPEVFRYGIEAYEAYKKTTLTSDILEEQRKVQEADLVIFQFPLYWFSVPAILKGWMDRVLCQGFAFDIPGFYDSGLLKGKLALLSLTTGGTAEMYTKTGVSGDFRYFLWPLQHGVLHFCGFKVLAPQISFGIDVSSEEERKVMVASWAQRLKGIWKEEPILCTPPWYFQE
The following applies: cited from earlier work.

In another test the test system is C57BL/6J mice. Nature of the test: tail suspension test in C57BL/6J mice. The test is classed as in vivo. The protocol:
The tail suspension test is a variant of the “behavioral despair” forced swimming test in which immobility is induced by suspending an animal by the tail (Steru et al., 1985). […] C57BL/6 mice ([…] 21-25g) were housed, ten per cage, in light controlled chambers (12 hr. light/12 hr. dark cycle-lights on at 08.00 hr., off at 20.00 hr.) with free access to food and water. Each animal was tested in a chamber made out of white non-transparent plastics. The C57BL/6J mice are suitable animals for such a study since no enzymes of melatonin biosynthesis have been found in the pineal glands of this strain of mice (Ebihara et al., 1986). Therefore, the observed effects could not be attributed to melatonin. The chamber was 17 cm W×25 cm H×15 cm D with a hook (4 cm) attached to the center of the ceiling. There was no front wall to allow for the observation of the mouse behavior. The mouse was hung on a hook by an adhesive tape placed 15 mm from the extremity of its tail. The animal was positioned with its stomach towards the investigator to assure the observation of the total immobility. The distance between the floor of the chamber and the nose of the animal was 10 cm. Immobility was scored as a sum of the time periods during which the animal hung passively and motionless for at least 2 sec. The total period of observation was 6 min. Experiments were conducted between 10.00 hr. and 14.00 hr. in a quiet room. The source of the light (50 W fluorescent bulb) was positioned 2 m above the experimental chamber. Baseline, control experiments were conducted several days before the actual experiments. Only those animals whose cumulative duration of immobility during the 6 min. observation was no less than 100 sec. were selected for further experiments. Three animals were tested simultaneously. Each experimental group was composed of at least nine animals. […] Nifedipine was injected in a dose (5 mg/kg, i.p.) which, by itself, has no effect on the duration of immobility ([…] and Oxenkrug, 1998). […] Results were expressed as mean±S.D. (sec.) and statistically treated by ANOVA and Student t-test.

In test [2] the test system is other melatonin receptors. The conditions noted are these: cited from earlier work.
Another test relates to mouse. The following applies: mouse tail suspension test; cited from earlier work.

For the compound `COC(=O)Nc1ccc2[nH]cc(CCNC(C)=O)c2c1` [5-MCA-NAT, 5-methoxy-carbonylamino-N-acetyltryptamine], in test [1], the “affinity for MT-3 melatonin sites” value was “high affinity”. Moreover, the duration of immobility entry in the test with C57BL/6J mice (5-MCA-NAT 10 mg/kg i.p., 30 min before testing, 6 min observation) is listed as “did not affect the duration of immobility”; in the test with C57BL/6J mice (5-MCA-NAT 25 mg/kg i.p., 30 min before testing, 6 min observation) it was “decreased the duration of immobility”; in the test on C57BL/6J mice (5-MCA-NAT 50 mg/kg i.p., 30 min before testing, 6 min observation), “decreased the duration of immobility”; in the test on C57BL/6J mice (combination: 5-MCA-NAT 10 mg/kg i.p. with nifedipine 5 mg/kg i.p. injected 15 min after) it was “decreased the duration of immobility”. Besides, the “affinity or efficacy for other melatonin receptors” value in test [2] is recorded as “low affinity or efficacy”.
Turning to `COc1ccc2[nH]cc(CCNC(C)=O)c2c1` [Melatonin, N-acetyl-5-methoxytryptamine], the antidepressant-like activity result with mouse is listed as “antidepressant-like activity”.
In the case of `COc1cc2nc(N3CCN(C(=O)c4ccco4)CC3)nc(N)c2cc1OC` [Prazocin, reference compound], the duration of immobility entry with C57BL/6J mice (prazocin 0.5 mg/kg alone) is given as “did not affect the duration of immobility”. For the same compound, the “effect on decrease of immobility induced by 5-MCA-NAT” value in the test on C57BL/6J mice (prazocin 0.5 mg/kg injected 15 min before 5-MCA-NAT 50 mg/kg) was “prevented decrease of immobility”.

(Values after US20010047016A1, “Method for treating depression” (priority 2000, published 2001).)
